Where “and” joins values, the source holds several entries; their conditions need not be identical. Equal values may be shown once. Entries after “also recorded” stand apart in the source; their conditions may differ. Each block holds one compound with its values, some of them ahead of it.
How the values were obtained:
WT SOD1 [1] = biological target: T1, WT SOD1 (Homo sapiens, UniProt P00441); test: SOD1 cross-linking kinetics, mass spectrometry assay (percent covalent dimer); format: biochemical; conditions: for % of SOD1 cross-linked after 10 min of incubation: 50 μM SOD1, 1000 μM compound (20× excess), pH 7.4, 10 min; for binding to single Cys residues (free Cys111 and Cys6) of SOD1: any sample; for cross-linking of SOD1, result in words (FIG. 13): 1:1 ratio of SOD1 dimer:cross-linker
T1 construct: made in house; host or cells: EGy118ΔSOD1 yeast, vector YEp-351
Text: The reaction was monitored using a mass spectrometry (MS) assay that uses a combination of increased voltage within the region of hypersonic gas expansion and brief treatment with 10% formic acid to create exclusively monomeric SOD1 or covalently cross-linked SOD1 dimer. Formic acid also quenches the reaction, transforming any reactive thiolates to unreactive thiols. As a result, if no reaction occurs, only apo SOD1 monomer is detected (FIG. 2, top). […] Given sufficient time for thiolates to be oxidized to sulfenic acid (which occurs on the order of days-weeks), even 1,2-dithiane was expected to cross-link SOD1. After 72 h of incubation with 1,2-dithiane, 11% of SOD1 had formed the expected covalent dimer (FIG. 5).
Human WT SOD1 was expressed in yeast. […] Dilution in HPLC-Grade water to 1 mM cyclic disulfide was performed prior to experimentation. As a negative control, 50 μM human WT SOD1 was incubated at 37° C. with 4% HPLC-grade methanol. At every time point, 1 μL of each sample was removed from their respective reaction vial for analysis. Samples were briefly (˜30 seconds) incubated at room temperature with 10% formic acid to remove metals from SOD1 and quench cross-linking reaction prior to mass spectrometry analysis. Samples were then diluted to 1 μM SOD1 in 50:50 acetonitrile:water, 0.1% FA and analyzed by direct infusion into a Bruker SolariX XR FT-ICR mass spectrometer. The percent dimer formation was calculated by comparing the relative dimer (31,808 Da) and monomer (15,844 Da) MaxEnt deconvoluted peak heights (Dimer/(Dimer+Monomer)). Identical methods were used in the kinetics of α-lipoic acid and β-lipoic acid. Kinetics of 1,2-dithiepane vs. 1,2-dithiepane-1-oxide were performed at a 1:1 ratio of SOD1 dimer:cross-linker.

C111S SOD1 = biological target: T2, C111S SOD1 (Homo sapiens, UniProt P00441, C112S); test: Localization of cross-link using point mutated C111S SOD1 (LC-MS); format: biochemical; conditions: 10 μM SOD1, 100 μM compound, overnight, room temperature
T2 construct: made in house; host or cells: EGy118ΔSOD1 yeast, vector YEp-351
Protocol: Aliquots from each of the SOD1 incubations were individually diluted ten-fold with H2O containing 0.1% formic acid and analyzed using reversed phase C18 LC-MS on a Bruker HCT Ultra ion trap. The resulting data were processed using DataAnalysis 3.4 (Bruker Daltonics). Mass spectra were averaged across the retention times corresponding to when SOD1 eluted and were deconvoluted to determine the molecular weight of the uncharged species.

WT SOD1 [2] = biological target: T1, WT SOD1; test: In vitro glutathione competition assay; format: biochemical
Protocol: Purified WT SOD1 was diluted to 10 μM in 10 mM ammonium acetate, pH 7.4. […] Samples were briefly (30 seconds) incubated at room temperature with 10% formic acid to remove metals from SOD1 prior to mass spectrometry analysis. Samples were then diluted to 1 μM SOD1 in 50:50 acetonitrile:water, 0.1% FA and analyzed by direct infusion into a Bruker Solarix XR FT-ICR mass spectrometer. The percent dimer formation was calculated by comparing the relative dimer (31,808 Da) and monomer (15,844 Da) MaxEnt deconvoluted peak heights (Dimer/(Dimer+Monomer))

WT SOD1 [3] = biological target: T1, WT SOD1; test: In vitro DTT competition assay; format: biochemical; conditions: 1:1 cross-linker:DTT (equimolar), 24 h, 37° C.
Protocol: Purified WT SOD1 was diluted to 50 μM in 10 mM ammonium acetate, pH 7.4. […] DTT solutions were made in 100% HPLC grade H2O. DTT solution concentrations were 1 mM, 2 mM and 4 mM. Samples were left to incubate at 37° C. for 24 h. Samples were then diluted to 1 μM SOD1 in 50:50 acetonitrile:water, 0.1% FA and analyzed by direct infusion into a Bruker Solarix XR FT-ICR mass spectrometer

SOD1 in Hep G2 cells = biological target: T3, SOD1 in Hep G2 cells (Homo sapiens, UniProt P00441); test: SOD1 cross-linking in Hep G2 cells, western blot; format: cell-based; conditions: for cross-linking of SOD1 in cells, result in words: Hep G2 cells, increasing concentrations, compared with α-lipoic acid
T3 construct: endogenous in cells; host or cells: Hep G2
Protocol: Hep G2 cells were cultures in DMEM with 10% fetal bovine serum and penicillin/streptomycin in 96 well Costar® Corning CellBIND plate with 5% CO2 at 37° C. The cells were cultured to monolayer confluency. […] Stocks were diluted twenty-fold in 1×PBS (final DMSO 5%). Cells were treated with 200 uL of compound and incubated for 30 minutes at 37° C. 5% CO2. Cells were washed with 1×PBS and 20 μL of 6× nonreducing sample buffer was added to each well. The 96 well plate was heated to 90° C. for 10 minutes. Samplers were spun at 14000 RPM for 5 minutes in a Beckman Coulter Microfuge®18 centrifuge. Samples were run using a Bio Rad Mini-Protean electrophoresis chamber on 12% precast TGX polyacrylamide gels at 150V. After separation was complete, gels were extracted from the cassettes and incubated in an in-house transfer buffer for 10 minutes are 90° C. to ensure thorough transfer of protein bands and thorough binding of antibody (25 mM Tris, 192 mM glycine, 10 mM 2-mercaptoethanol, 0.1% SDS). Transfer was performed with a Bio Rad Trans-blot turbo transfer system using a trans-clot turbo transfer pack. Membranes were dried, blocked with 5% milk for 2 h at room temperature. Membranes were then probed with primary antibody, anti-SOD1 antibody SOD100 overnight at 4° C. Membranes are incubated with HRP-labeled secondary antibodies and visualized using ECL Western Blotting Substrate and imaged using the ChemiDoc MP.

SOD1 in HeLa cells = biological target: T4, SOD1 in HeLa cells (Homo sapiens, UniProt P00441); test: SOD1 cross-linking in HeLa cells, western blot; format: cell-based; conditions: EC50 for cross-linking of SOD1, HeLa cells
T4 construct: endogenous in cells; host or cells: HeLa
Protocol: HeLa cells were cultured in DMEM with 10% fetal bovine serum and penicillin/streptomycin in 24 well Costar® Corning CellBIND plate with 5% CO2 at 37° C. The cells were cultured to monolayer confluency. […] The 100 mM solution diluted to various concentrations with 1×PBS solution. 1 mL of solutions was added to the HeLa cells in the 24 well plate. […] Cells were washed 2× with 1 mL PBS. After removing the second PBS wash, the cells were then treated with 6× non-reducing SDS sample buffer and collected. The collected cell lysate was divided into two parts. One half was treated with 5% β-ME, to remove bound cyclic disulfides, as negative controls. The other half was treated with equal amount of milliQ water. All the cell lysate samples were then heated at 80° C. for 10 minutes in an Eppendorf Thermomixer. The samples were spun at 14000 rpm for 5 minutes in Beckman Coulter Microfuge centrifuge. HeLa cell extracts were separated on 12% SDS-polyacrylamide TrisHCl gels run at 80 V at room temperature. Proteins were transferred to nitrocellulose membranes for Western blotting. Monomer and covalently-linked dimer SOD1 were detected using the rabbit polyclonal anti-SOD1 antibody SOD100. Membranes are incubated with HRP-labeled secondary antibodies and visualized using ECL Western Blotting Substrate and imaged using the ChemiDoc MP.

SH-SY5Y cells = format: cell-based; conditions: 24 h
Protocol: Human immortalized neuroblastoma cells (SH-SY5Y) were purchased from ATCC (Manassas, Virginia, USA). Cells were grown in Eagle's Minimum Essential Medium (EMEM) supplemented with 10% fetal bovine serum at 37° C. and 5% CO2 to >70% confluency. […] Following incubation with 1,2-dithaine-1-oxide, 22 μL of PrestoBlue® was added to each well and allowed to incubate for 10 min at 37° C. Excitation/emission was measured at 560/590 (in nm) using an Infinite® 200 plate reader (Tecan, Mannedorf, Switzerland). Cell viability was quantified relative to untreated cells.

[4] = with reduced glutathione; cited from earlier work
[5] = 50 μM SOD1, 20× excess compound
[6] = 10× compound and 100× reduced glutathione

T3 sequence (P00441 2-154 limits assumed): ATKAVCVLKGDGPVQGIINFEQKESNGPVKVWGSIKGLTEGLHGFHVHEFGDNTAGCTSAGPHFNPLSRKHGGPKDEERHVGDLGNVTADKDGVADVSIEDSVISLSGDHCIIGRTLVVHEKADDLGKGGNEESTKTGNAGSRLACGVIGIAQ
T1 sequence (P00441 2-154 limits assumed): as above
T2 sequence (P00441 2-154 C112S limits assumed): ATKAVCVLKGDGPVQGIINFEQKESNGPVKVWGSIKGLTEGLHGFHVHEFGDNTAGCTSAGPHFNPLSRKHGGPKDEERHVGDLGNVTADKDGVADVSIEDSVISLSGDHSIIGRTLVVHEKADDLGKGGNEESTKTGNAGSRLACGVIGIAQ
T4 sequence (P00441 2-154 limits assumed): as the sequence (P00441 2-154 limits assumed) above

% of SOD1 cross-linked after 10 min of incubation (WT SOD1 [1]; 37° C.): 0%
cross-linking of SOD1, result in words (WT SOD1 [1]; [5]): slow cross-link formation
% of SOD1 forming covalent dimer after three days (72 h) (WT SOD1 [1]; 50 μM SOD1, 20× excess compound, 37° C., 72 h): 11%
binding to single Cys residues (free Cys111 and Cys6) of SOD1 (WT SOD1 [1]): no binding to single Cys residues
Compound: C1CCSSC1 [1,2-dithiane]

cross-linking of SOD1, result in words (FIG. 13) (WT SOD1 [1]): does not
Compound: C1CCSSCC1 [1,2-dithiepane]

cross-linking of SOD1, result in words (FIG. 15) (WT SOD1 [1]): rapid and complete cross-link of SOD1
Compound: [O-][S+]1CCCCCCS1 (stereo not shown) [1,2-dithiocane-1-oxide]

cross-linking of SOD1, result in words (FIG. 15) (WT SOD1 [1]): does not
Compound: C1CCCSSCC1 [1,2-dithiocane]

The remaining lines, values behind:

Compound: [O-][S+]1CCCCS1 (stereo not shown) [1,2-dithiane-1-oxide]
% of SOD1 cross-linked after 10 min of incubation (WT SOD1 [1]; 37° C.): 95%
cross-linking of SOD1, result in words (WT SOD1 [1]; [5]): rapid and complete dithiolate cross-linking
binding to single Cys residues (free Cys111 and Cys6) of SOD1 (WT SOD1 [1]): no binding to single Cys residues
overall second order rate constant of cross-linking product formation (WT SOD1 [1]; multi-concentration kinetics, protocol of Singh et al.): 250 M⁻¹ s⁻¹
covalent dimer formation with C111S SOD1 (C111S SOD1): No cross-linking was observed; also recorded: no covalent dimer formation
cross-linking of SOD1 in the presence of glutathione, result in words (WT SOD1 [2]; 10:1 ratio of glutathione:compound): proceeded to completion; also recorded: can efficiently cross-link SOD1
cross-linking yield in the presence of glutathione (WT SOD1 [2]; [6]): 100%
rate of cross-linking in the presence of glutathione (WT SOD1 [2]; [6]): decreased
cross-linking of SOD1 in the presence of DTT, result in words (WT SOD1 [3]): proceeded to completion; also recorded: ability to cross-link the thiol pair of SOD1
EC50 (SOD1 in Hep G2 cells; EC50 for cross-linking of SOD1, Hep G2 cells, 30 min incubation, western blot): ~5 µM and 1 to 5 µM
EC50 (SOD1 in HeLa cells): ~5 µM and 1 to 5 µM
concentration at which cell viability is equivalent to untreated cells, relative to EC50 (SH-SY5Y cells): 50 fold

Compound: [O-][S+]1CCCCCS1 (stereo not shown) [1,2-dithiepane-1-oxide]
cross-linking of SOD1, result in words (FIG. 13) (WT SOD1 [1]): rapid and complete cross-link of SOD1

Compound: OC1CSSCC1O (stereo not shown) [oxidized DTT]
extrapolated half-life of thiol-disulfide exchange [4]: > 3.33 h

Compound: β-lipoic acid
rate and extent of covalent cross-linking of SOD1 versus α-lipoic acid, in words (WT SOD1 [1]; mass spectrometry assay): Both rate and extent of covalent cross-linking of SOD1 is increased
more SOD1 cross-linked in vitro compared to ALA (WT SOD1 [1]; mass spectrometry assay, compared to ALA): 30%
cross-linking of SOD1 in cells, result in words (SOD1 in Hep G2 cells): cross-links SOD1 in Hep G2 cells, and does so more efficiently than the cyclic disulfide, α-lipoic acid
cross-linking of SOD1 in cells, result in words (SOD1 in Hep G2 cells; listed as BLA): cross-linked SOD1 in cells
